# Measured values: patent US20040171632A1, “Combination chemotherapy” (priority 1998, published 2004)
# Tests used:
# colon 26 carcinoma cells = assay: apoptosis of colon 26 carcinoma cells in culture (phalloidin-FITC, flow cytometry); type: cell-based, mouse; conditions: for increase of apoptosis: FIG. 1; for incidence in apoptosis: second study, FIG. 2
# Method: The data establish that the vehicle alone (DMSO) caused no effect on apoptosis (programmed cell death) of the colon 26 carcinoma cells. […] At the 30 nM concentration of paclitaxel, the combination caused about an 18% incidence in apoptosis.
# The assay described above was repeated, and the results (see FIG. 2) confirmed that the combinations of this invention are useful to treat and control cancer. In this second study, DMSO did cause measurable cell death, somewhat similar to that observed with the 30 nM concentration of paclitaxel alone.
# [1] = system: non-small cell lung carcinoma cells (A549); conditions: Taxol alone at 10 nM; one set of experiments
# Method: The colon 26 carcinoma cells were originally collected from a mouse that had undergone surgery to remove the infected section of the colon, and are now readily available from Southern Research Institute (Birmingham, Ala., USA). The cells were cultured to approximately 80% confluency on Day 0 of the assay. At 72 hours after the 80% confluency was established, dimethylsulfoxide (DMSO) was added to one set of cells to act as untreated controls. Paclitaxel at concentrations of 30 nM and 100 nM was added to other sets of cells. All of the cells were incubated at 38° C. for 48 hours, at which time MEK inhibitor 2-(2-chloro-4-iodophenylamino)-N-cyclopropylmethoxy-3,4-difluorobenzamide (PD184352), at a concentration of 1.0 micromolar, was added to one set of the DMSO control cells, and to the cells containing the two concentrations of paclitaxel. All cells were again incubated for an additional 48-hour period. The cells were harvested from the growth medium, and were fixed in ethanol. The cells were then treated with FITC (fluorescein isothiocyanate)-labeled phalloidin (Sigma). Binding of phalloidin-FITC to depolymerized actin thereby serves as a measure of apoptosis. Propidium iodide was also added to the treated and control cells for the purpose of staining all cells. The extent of apoptosis of tumor cells was measured by flow cytometry analysis. […]
structure (smiles),measurement,setting,value
"Cc1cc(I)ccc1Nc1cc(F)ccc1CO [Example 49, 4-Fluoro-2-(4-iodo-2-methyl-phenylamino)-benzyl alcohol]",melting point,,99 to 100.5 °C
"Cc1cc(I)ccc1Nc1ccccc1-c1nnn[nH]1 [Example 208, (4-iodo-2-methyl-phenyl)-[2-(1H-tetrazol-5-yl)-phenyl]amine]",melting point,,231 °C
"O=C(NOCC1CC1)c1ccc(F)c(F)c1Nc1ccc(I)cc1Cl [PD184352, 2-(2-chloro-4-iodophenylamino)-N-cyclopropylmethoxy-3,4-difluorobenzamide]",increase of apoptosis,"colon 26 carcinoma cells; MEK inhibitor alone, at 30 nM as printed",about 5%
same,incidence in apoptosis,colon 26 carcinoma cells; MEK inhibitor administered alone,~18%
CC(=O)O[C@H]1C(=O)[C@@]2(C)[C@H]([C@H](OC(=O)c3ccccc3)[C@]3(O)C[C@H](OC(=O)[C@H](O)[C@@H](NC(=O)c4ccccc4)c4ccccc4)C(C)=C1C3(C)C)[C@]1(OC(C)=O)CO[C@@H]1C[C@@H]2O [paclitaxel],increase of apoptosis,colon 26 carcinoma cells; paclitaxel alone at 30 nM,about 9%
same,increase of apoptosis,colon 26 carcinoma cells; paclitaxel alone at 100 nM,about 18%
same,incidence in apoptosis,colon 26 carcinoma cells; paclitaxel at 100 nM alone,~11%
same,incidence of apoptosis,[1],41%
"Cc1cc(I)ccc1Nc1ccc(Cl)cc1C(=O)NCCO [Example 31, 5-Chloro-N-(2-hydroxyethyl)-2-(4-iodo-2-methyl-phenylamino)-benzamide]",melting point,,120 to 121 °C
